Data as given in ChEMBL document CHEMBL3856277, “Design, synthesis, and activity evaluation of selective inhibitors of anti-apoptotic Bcl-2 proteins: The effects on the selectivity of the P1 pockets in the active sites” (Bioorg Med Chem Lett, 2016).

How the values were obtained:
[1] = target: Apoptosis regulator Bcl-2 (Homo sapiens, UniProt P10415); test: Inhibition of 5-FAM-Bid peptide binding to Bcl-2 (unknown origin) by fluorescence polarization assay
[2] = target: Bcl-2-like protein 1 (Homo sapiens, UniProt Q07817); test: Inhibition of 5-FAM-Bid peptide binding to Bcl-XL (unknown origin) by fluorescence polarization assay
[3] = target: Induced myeloid leukemia cell differentiation protein Mcl-1 (Homo sapiens, UniProt Q07820); test: Inhibition of 5-FAM-Bid peptide binding to MCL-1 (unknown origin) by fluorescence polarization assay
[4] = organism: Homo sapiens; test: Selectivity index, ratio of Ki for Bcl-2 (unknown origin) to Ki for Bcl-XL (unknown origin)
[5] = organism: Homo sapiens; test: Selectivity index, ratio of Ki for Bcl-2 (unknown origin) to Ki for MCL-1 (unknown origin)
[6] = Growth inhibition of human HL60 cells after 72 hrs by MTT assay; format: functional, cell-based; conditions: HL-60, 72 h
[7] = Growth inhibition of human U266 cells after 72 hrs by MTT assay; format: functional, cell-based; conditions: U-266, 72 h
[8] = Growth inhibition of human MCF7 cells after 72 hrs by MTT assay; format: functional, cell-based; conditions: MCF7, 72 h
[9] = Growth inhibition of human SKOV3 cells after 72 hrs by MTT assay; format: functional, cell-based; conditions: SK-OV-3, 72 h
[10] = Growth inhibition of human NCI-H23 cells after 72 hrs by MTT assay; format: functional, cell-based; conditions: NCI-H23, 72 h

Chain of Induced myeloid leukemia cell differentiation protein Mcl-1 (Q07820 whole entry): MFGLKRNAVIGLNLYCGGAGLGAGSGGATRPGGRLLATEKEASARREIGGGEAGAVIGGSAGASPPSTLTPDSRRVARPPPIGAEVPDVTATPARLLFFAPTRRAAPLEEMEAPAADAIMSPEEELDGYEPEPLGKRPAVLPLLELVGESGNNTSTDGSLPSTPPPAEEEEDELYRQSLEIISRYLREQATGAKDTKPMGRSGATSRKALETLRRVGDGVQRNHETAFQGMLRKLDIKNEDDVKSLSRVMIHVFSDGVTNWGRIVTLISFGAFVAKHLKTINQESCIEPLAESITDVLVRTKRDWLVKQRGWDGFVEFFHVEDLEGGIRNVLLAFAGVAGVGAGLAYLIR
Chain of Bcl-2-like protein 1 (Q07817 whole entry): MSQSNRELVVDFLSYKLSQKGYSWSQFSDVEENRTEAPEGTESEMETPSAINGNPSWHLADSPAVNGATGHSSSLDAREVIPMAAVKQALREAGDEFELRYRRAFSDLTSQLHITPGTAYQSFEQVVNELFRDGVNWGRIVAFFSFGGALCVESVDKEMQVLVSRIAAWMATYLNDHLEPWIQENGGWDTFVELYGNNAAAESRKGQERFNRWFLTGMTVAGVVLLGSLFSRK
Chain of Apoptosis regulator Bcl-2 (P10415 whole entry): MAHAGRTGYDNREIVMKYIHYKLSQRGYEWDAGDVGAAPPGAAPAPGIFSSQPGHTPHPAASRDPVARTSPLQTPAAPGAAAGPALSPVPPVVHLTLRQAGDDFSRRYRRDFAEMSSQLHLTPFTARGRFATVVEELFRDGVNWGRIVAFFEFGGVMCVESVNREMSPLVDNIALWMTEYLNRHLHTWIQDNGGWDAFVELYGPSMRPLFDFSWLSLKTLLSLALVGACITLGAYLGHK

Row | SMILES | Ki [1] [nM] | Ki [2] [nM] | Ki [3] [nM] | Ratio Ki [4] | Ratio Ki [5] | IC50 [6] [nM] | IC50 [7] [µM] | IC50 [8] [nM] | IC50 [9] [µM] | IC50 [10] [µM]
1 | C=C(c1ccc(C(=O)Nc2ccc(C(=O)NS(=O)(=O)c3ccc(NCCSc4ccccc4)c([N+](=O)[O-])c3)cc2)cc1)c1cc2c(cc1C)C(C)(C)CCC2(C)C | 3100 | > 20000 | 290 | < 1 | 11 | 2920 | 6.95 | 260 | 7.83 | 8.38
2 | O=C(/C=C/c1ccccc1)Nc1ccc(C(=O)NS(=O)(=O)c2ccc(NCCSc3ccccc3)c([N+](=O)[O-])c2)cc1 | 4900 | 140 | 1600 | 35 | 3 |  |  |  |  | 
3 | O=C(/C=C/c1cccc(C(F)(F)F)c1)Nc1ccc(C(=O)NS(=O)(=O)c2ccc(NCCSc3ccccc3)c([N+](=O)[O-])c2)cc1 | 2600 | 290 | 5400 | 9 | < 1 |  |  |  |  | 
4 | O=C(/C=C/c1ccc(C(F)(F)F)cc1)Nc1ccc(C(=O)NS(=O)(=O)c2ccc(NCCSc3ccccc3)c([N+](=O)[O-])c2)cc1 | 2000 | 510 | 1700 | 4 | 1 |  |  |  |  | 
5 | O=C(NS(=O)(=O)c1ccc(NCCSc2ccccc2)c([N+](=O)[O-])c1)c1ccc(C(=O)c2ccccc2)cc1 | 3400 | 330 | 4000 | 10 | 1 |  |  |  |  | 
6 | O=C(Cc1ccccc1)Nc1ccc(C(=O)NS(=O)(=O)c2ccc(NCCSc3ccccc3)c([N+](=O)[O-])c2)cc1 | 4000 | 450 | 5600 | 9 | 1 |  |  |  |  | 
7 | COc1cccc(/C=C/C(=O)Nc2ccc(C(=O)NS(=O)(=O)c3ccc(NCCSc4ccccc4)c([N+](=O)[O-])c3)cc2)c1 | 1900 | 110 | 800 | 17 | 2 |  |  |  |  | 
8 | CN(C)CC[C@H](CSc1ccccc1)Nc1ccc(S(=O)(=O)NC(=O)c2ccc(N3CCN(Cc4ccccc4-c4ccc(Cl)cc4)CC3)cc2)cc1[N+](=O)[O-] [ABT 737] |  |  |  |  |  | 970 | 27.4 | 25300 | 46.6 | 71.2
9 | O=C(Nc1ccc(C(=O)NS(=O)(=O)c2ccc(NCCSc3ccccc3)c([N+](=O)[O-])c2)cc1)c1ccccc1 | 1700 | 630 | 6700 | 3 | < 1 |  |  |  |  | 
10 | C=C(c1ccc(C(=O)NS(=O)(=O)c2ccc(NCCSc3ccccc3)c([N+](=O)[O-])c2)cc1)c1cc2c(cc1C)C(C)(C)CCC2(C)C | 4200 | > 20000 | 60 | < 1 | 70 | 4860 | 7.63 | 2250 | 7.64 | 7.4
11 | O=C(CCc1ccccc1)Nc1ccc(C(=O)NS(=O)(=O)c2ccc(NCCSc3ccccc3)c([N+](=O)[O-])c2)cc1 | 4400 | 320 | 6900 | 14 | 1 |  |  |  |  | 
12 | O=C(/C=C/c1ccccc1C(F)(F)F)Nc1ccc(C(=O)NS(=O)(=O)c2ccc(NCCSc3ccccc3)c([N+](=O)[O-])c2)cc1 | 1700 | 170 | 660 | 10 | 3 |  |  |  |  | 
13 | Cc1cc2c(C(C)C)c(O)c(O)c(C=O)c2c(O)c1-c1c(C)cc2c(C(C)C)c(O)c(O)c(C=O)c2c1O [GOSSYPOL] |  |  | 640 |  |  |  |  |  |  | 

Second part, led by results:

Row | Ki [1] [nM] | Ki [2] [nM] | Ki [3] [nM] | Ratio Ki [4] | Ratio Ki [5] | SMILES | IC50 [6] [nM] | IC50 [7] [µM] | IC50 [8] [nM] | IC50 [9] [µM] | IC50 [10] [µM]
14 | 1700 | 210 | 830 | 8 | 2 | Cc1ccccc1/C=C/C(=O)Nc1ccc(C(=O)NS(=O)(=O)c2ccc(NCCSc3ccccc3)c([N+](=O)[O-])c2)cc1 |  |  |  |  | 
15 | 1100 | 210 | 2700 | 5 | < 1 | O=C(/C=C/c1ccc(Cl)cc1)Nc1ccc(C(=O)NS(=O)(=O)c2ccc(NCCSc3ccccc3)c([N+](=O)[O-])c2)cc1 |  |  |  |  | 
16 | 1500 | 130 | 630 | 12 | 2 | Cc1ccc(/C=C/C(=O)Nc2ccc(C(=O)NS(=O)(=O)c3ccc(NCCSc4ccccc4)c([N+](=O)[O-])c3)cc2)cc1 |  |  |  |  | 
17 | 1300 | 290 | 1300 | 4 | 1 | O=C(/C=C/c1cccc(Cl)c1)Nc1ccc(C(=O)NS(=O)(=O)c2ccc(NCCSc3ccccc3)c([N+](=O)[O-])c2)cc1 |  |  |  |  | 
18 | 1700 | 160 | 440 | 11 | 4 | Cc1cccc(/C=C/C(=O)Nc2ccc(C(=O)NS(=O)(=O)c3ccc(NCCSc4ccccc4)c([N+](=O)[O-])c3)cc2)c1 |  |  |  |  | 
19 | 720 | 90 | 8600 | 8 | < 1 | COc1ccccc1/C=C/C(=O)Nc1ccc(C(=O)NS(=O)(=O)c2ccc(NCCSc3ccccc3)c([N+](=O)[O-])c2)cc1 |  |  |  |  | 
20 | 600 | 120 | 14000 | 5 | < 1 | O=C(/C=C/c1ccccc1Cl)Nc1ccc(C(=O)NS(=O)(=O)c2ccc(NCCSc3ccccc3)c([N+](=O)[O-])c2)cc1 |  |  |  |  | 
21 | 1300 | 70 | 590 | 19 | 2 | COc1ccc(/C=C/C(=O)Nc2ccc(C(=O)NS(=O)(=O)c3ccc(NCCSc4ccccc4)c([N+](=O)[O-])c3)cc2)cc1 |  |  |  |  | 
